# Experiment: Lipophilicity determined as logarithm of the partition coefficient in the alkane/water system
# Conditions: octanol/water
row,Structure (SMILES),Log PNalk
1,C=CCc1ccccc1OCC(O)CNC(C)C (stereo not given) [ALPRENOLOL],1.3
2,Nc1ccc(/N=N/c2ccccc2)c(N)n1 [PHENAZOPYRIDINE],0.42
3,CCC1(c2ccccc2)C(=O)NC(=O)NC1=O [PHENOBARBITAL],-2.75
4,Oc1ccccc1 [PHENOL],-0.82
5,O=C(O)Cc1ccccc1 [PHENYLACETIC ACID],-1.6
6,O=C1NC(=O)C(c2ccccc2)(c2ccccc2)N1 [PHENYTOIN],-0.3
7,CNC(=O)Oc1ccc2c(c1)[C@]1(C)CCN(C)[C@@H]1N2C [PHYSOSTIGMINE],-0.46
8,CC(=O)[C@H]1CC[C@H]2[C@@H]3CC=C4C[C@@H](O)CC[C@]4(C)[C@H]3CC[C@]12C [PREGNENOLONE],0.62
9,CCN(CC)CCOC(=O)c1ccc(N)cc1 [PROCAINE],-0.67
10,CC(=O)[C@H]1CC[C@H]2[C@@H]3CCC4=CC(=O)CC[C@]4(C)[C@H]3CC[C@]12C [PROGESTERONE],1.23
11,CCC(=O)O [PROPIONIC ACID],-2.14
12,COc1ccc(CN(CCN(C)C)c2ccccn2)cc1 [PYRILAMINE],2
13,c1ccc2ncccc2c1 [QUINOLINE],1.26
14,O=C(O)c1ccccc1O [SALICYLIC ACID],-0.92
15,C=CCC1(C(C)CCC)C(=O)NC(=O)NC1=O (stereo not given) [SECOBARBITAL],-0.99
16,Cc1ccc(Cc2cnc(NCCCCc3ncc(Br)cc3C)[nH]c2=O)cn1 [TEMELASTINE],1.28
17,CC(C)(C)c1ccc(C(O)CCCN2CCC(C(O)(c3ccccc3)c3ccccc3)CC2)cc1 (stereo not given) [TERFENADINE],2.63
18,C[C@]12CC[C@H]3[C@@H](CCC4=CC(=O)CC[C@@]43C)[C@@H]1CC[C@@H]2O [TESTOSTERONE],0.41
19,CCCCNc1ccc(C(=O)OCCN(C)C)cc1 [TETRACAINE],1.75
20,C1CCSC1 [TETRAHYDROTHIOPHENE],1.59
21,Cn1c(=O)c2[nH]cnc2n(C)c1=O.O [THEOPHYLLINE],-1.7
22,CCCC(C)C1(CC)C(=O)NC(=S)NC1=O (stereo not given) [THIOPENTAL],0.52
23,Cc1ccc(C(C)C)c(O)c1 [THYMOL],1.4
24,CC(C)(C)NC[C@H](O)COc1nsnc1N1CCOCC1 [TIMOLOL],-1
25,COc1cccc([C@@]2(O)CCCC[C@@H]2CN(C)C)c1 [TRAMADOL],1.82
26,O=C(O)C(Cl)(Cl)Cl [TRICHLOROACETIC ACID],-2.63
27,CC(Cl)(Cl)Cl [TRICHLOROETHANE],2.71
28,CC(=O)CC(c1ccccc1)c1c(O)c2ccccc2oc1=O (stereo not given) [WARFARIN],0.05
29,COc1ccc(C(=O)O)cc1 [p-ANISIC ACID],-0.15
30,Cc1ccc(O)cc1 [p-CRESOL],-0.19

# Experiment: Tested for fraction of oral dose absorbed orally in humans
# Type: ADME
# Conditions: human
row,Structure (SMILES),Activity
1,C=CCc1ccccc1OCC(O)CNC(C)C (stereo not given) [ALPRENOLOL],96%
2,Cc1cc(=O)n(-c2ccccc2)n1C [ANTIPYRINE],97%
3,OC[C@@H](O)[C@@H](O)[C@H](O)[C@H](O)CO [MANNITOL],26%
4,CC(C)NCC(O)COc1cccc2[nH]ccc12 (stereo not given) [PINDOLOL],92%

# Same assay, conditions: human, read-out: Activity
row,Structure (SMILES),Fa
1,O=C(O)c1cc(/N=N/c2ccc(S(=O)(=O)Nc3ccccn3)cc2)ccc1O [SULFASALAZINE],13%
